Measurements reported in US20250230193A1, “CYCLIC COMPOUND HAVING SELECTIVE KRAS INHIBITORY EFFECT ON HRAS AND NRAS” (CHUGAI SEIYAKU KABUSHIKI KAISHA, priority 2022, published 2025).

Assays:
[1] = molecular target: GDP-bound NRAS wild-type protein (Homo sapiens, UniProt P01111); experiment: Binding to NRAS by surface plasmon resonance (SPR), Single Cycle Kinetics; details: for NRAS/KRAS (ratio of KD value for NRAS to KD value for KRAS) / NRAS/KRAS (ratio of KD value with respect to NRAS to KD value with respect to KRAS): GDP-bound NRAS wild-type vs GDP-bound KRAS wild-type
[2] = molecular target: GDP-bound HRAS wild-type protein (Homo sapiens, UniProt P01112); experiment: Binding to HRAS by surface plasmon resonance (SPR), Single Cycle Kinetics; details: for HRAS/KRAS (ratio of KD value for HRAS to KD value for KRAS) / HRAS/KRAS (ratio of KD value with respect to HRAS to KD value with respect to KRAS): GDP-bound HRAS wild-type vs GDP-bound KRAS wild-type
Chain of GDP-bound HRAS wild-type protein (P01112 whole entry): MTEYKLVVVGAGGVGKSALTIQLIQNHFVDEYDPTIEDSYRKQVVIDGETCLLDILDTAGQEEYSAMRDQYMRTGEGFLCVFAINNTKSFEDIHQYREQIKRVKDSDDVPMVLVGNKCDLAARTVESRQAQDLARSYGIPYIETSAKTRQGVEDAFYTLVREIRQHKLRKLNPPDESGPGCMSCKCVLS

Chain of GDP-bound NRAS wild-type protein (P01111 whole entry): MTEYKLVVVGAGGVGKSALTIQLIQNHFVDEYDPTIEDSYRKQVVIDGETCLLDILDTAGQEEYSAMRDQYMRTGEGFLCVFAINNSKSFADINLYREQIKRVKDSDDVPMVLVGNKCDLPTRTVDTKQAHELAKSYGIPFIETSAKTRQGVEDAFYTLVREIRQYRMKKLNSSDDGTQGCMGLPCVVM

## CCOC[C@H]1C(=O)N[C@@H]([C@@H](C)CC)C(=O)N(C)CC(=O)N(C)[C@H]2C/C=C\CCN(C2=O)[C@@H](Cc2ccc(C(F)(F)F)cc2)C(=O)N(C)CC(=O)N[C@@H](CCc2ccc(C(F)(F)F)c(OC)c2)C(=O)N2C[C@H](OCC)C[C@H]2C(=O)NC2(CC(C)(C)C2)C(=O)N(C)[C@@H](C2CCCC2)C(=O)N(C)[C@H](C(=O)N(C)CC)CC(=O)N1C [PP2014]
[1]; SPR
  NRAS/KRAS (ratio of KD value for NRAS to KD value for KRAS): A (a compound having 10 or more and less than 20 is denoted as A)
[2]; SPR
  HRAS/KRAS (ratio of KD value for HRAS to KD value for KRAS): A (a compound having 10 or more and less than 20 is denoted as A)

## CC[C@H](C)[C@@H]1NC(=O)[C@H](COC)N(C)C(=O)C[C@@H](C(=O)N(C)C)N(C)C(=O)[C@H](C2CCCC2)N(C)C(=O)C2(CC(C)(C)C2)NC(=O)[C@@H]2C[C@H](C)CN2C(=O)[C@H](CCc2ccc(C(F)(F)F)c(Cl)c2)NC(=O)CN(C)C(=O)[C@H](Cc2ccc(C)cc2)N2CC/C=C\C[C@@H](C2=O)N(C)C(=O)CN(C)C1=O [PP2502]
[1]; SPR
  NRAS/KRAS (ratio of KD value with respect to NRAS to KD value with respect to KRAS): A (a compound having 10 or more and less than 20 is denoted as A)
[2]; SPR
  HRAS/KRAS (ratio of KD value with respect to HRAS to KD value with respect to KRAS): A (a compound having 10 or more and less than 20 is denoted as A)

## CCCN(C)C(=O)[C@@H]1CC(=O)N(C)[C@@H](CC(F)F)C(=O)N[C@@H]([C@@H](C)CC)C(=O)N(C)CC(=O)N(C)[C@H]2C/C=C\CCN(C2=O)[C@@H](Cc2ccc(C(F)(F)F)cc2)C(=O)N(C)CC(=O)N[C@@H](CCc2cc(F)c(Cl)c(F)c2)C(=O)N2C[C@H](OCC)C[C@H]2C(=O)NC2(CC(C)(C)C2)C(=O)N(C)[C@@H](C2CCCC2)C(=O)N1C [PP1757]
[1]; SPR
  NRAS/KRAS (ratio of KD value for NRAS to KD value for KRAS): AA (a compound having 20 or more is denoted as AA)
[2]; SPR
  HRAS/KRAS (ratio of KD value for HRAS to KD value for KRAS): A (a compound having 10 or more and less than 20 is denoted as A)

## CC[C@H](C)[C@@H]1NC(=O)[C@H](CC(C)C)N(C)C(=O)C[C@@H](C(=O)N2CCOCC2)N(C)C(=O)[C@H](C2CCCC2)N(C)C(=O)C2(CCCC2)NC(=O)[C@@H]2CCCN2C(=O)[C@H](CCc2ccc(C(F)(F)F)c(Cl)c2)NC(=O)CN(C)C(=O)[C@H](Cc2ccc(Cl)cc2)N2CCCCC[C@@H](C2=O)N(C)C(=O)CN(C)C1=O [PP0613]
[1]; SPR
  NRAS/KRAS (ratio of KD value with respect to GDP-bound NRAS wild-type protein to KD value with respect to KRAS): B (a compound having 3 or more and less than 10 is denoted as B)
[2]; SPR
  HRAS/KRAS (ratio of KD value with respect to GDP-bound HRAS wild-type protein to KD value with respect to KRAS): B (a compound having 3 or more and less than 10 is denoted as B)

## CCC[C@H]1C(=O)N[C@@H]([C@@H](C)CC)C(=O)N(C)CC(=O)N(C)[C@H]2C/C=C\CCN(C2=O)[C@@H](Cc2ccc(C)cc2)C(=O)N(C)CC(=O)N[C@@H](CCc2ccc(C(F)(F)F)c(Cl)c2)C(=O)N2C[C@H](OCC)C[C@H]2C(=O)NC2(CC(C)(C)C2)C(=O)N(C)[C@@H](C2CCCC2)C(=O)N(C)[C@H](C(=O)N(C)C)CC(=O)N1C [PP1896]
[1]; SPR
  NRAS/KRAS (ratio of KD value for NRAS to KD value for KRAS): A (a compound having 10 or more and less than 20 is denoted as A)
[2]; SPR
  HRAS/KRAS (ratio of KD value for HRAS to KD value for KRAS): B (a compound having 3 or more and less than 10 is denoted as B)

## CCC[C@H]1C(=O)N[C@@H](C(CC)CC)C(=O)N(C)CC(=O)N(C)[C@H]2C/C=C\CCN(C2=O)[C@@H](Cc2ccc(C)cc2)C(=O)N(C)CC(=O)N[C@@H](CCc2ccc(C(F)(F)F)c(Cl)c2)C(=O)N2C[C@H](OCC)C[C@H]2C(=O)NC2(CC(C)(C)C2)C(=O)N(C)[C@@H](C2CCCC2)C(=O)N(C)[C@H](C(=O)N(C)C)CC(=O)N1C [PP2209]
[1]; SPR
  NRAS/KRAS (ratio of KD value with respect to NRAS to KD value with respect to KRAS): A (a compound having 10 or more and less than 20 is denoted as A)
[2]; SPR
  HRAS/KRAS (ratio of KD value with respect to HRAS to KD value with respect to KRAS): A (a compound having 10 or more and less than 20 is denoted as A)

## CCO[C@@H]1C[C@H]2C(=O)NC3(CC(C)(C)C3)C(=O)N(C)[C@@H](CC3CCC3)C(=O)N(C)[C@H](C(=O)N(C)C)CC(=O)N(C)[C@@H](COC)C(=O)N[C@@H]([C@@H](C)CC)C(=O)N(C3CC3)CC(=O)N(C)[C@H]3C/C=C\CCN(C3=O)[C@@H](Cc3ccc(C(F)(F)F)cc3)C(=O)N(C)CC(=O)N[C@@H](CCc3cc(F)c(C(F)(F)F)c(F)c3)C(=O)N2C1 [PP2769]
[1]; class symbols
  NRAS/KRAS (ratio of KD value with respect to GDP-bound NRAS wild-type protein to KD value with respect to KRAS): AA (a compound having 20 or more is denoted as AA)
[2]; class symbols
  HRAS/KRAS (ratio of KD value with respect to GDP-bound HRAS wild-type protein to KD value with respect to KRAS): A (a compound having 10 or more and less than 20 is denoted as A)
